Assay results taken from PMC9386018, “A lymphatic-absorbed multi-targeted kinase inhibitor for myelofibrosis therapy” (Nature Communications, 2022).
Where “and” joins values, the source holds several entries; their conditions need not be identical. Identical values can stand only once.

Legend:
[1] = tested on: phosphorylated ERK1/2 (pT202/pY204) in SET-2 cells; assay: Phospho-flow cytometry of pERK1/2 in SET-2 cells; assay type: cell-based, human; settings: 5 μM, 16 h
Description: The human megakaryoblastic cell line, SET-2 (ATCC), was maintained in RPMI 1640 supplemented with 20% FBS and incubated for 16 h at 10^6 cells mL^−1 with LP-182 or vehicle (DMSO; dimethyl sulfoxide), then washed in ice-cold PBS, and collected for flow cytometry analysis. Single-cell suspensions of mouse spleen were prepared from MPL^W515L MF mice (below) in RPMI 1640 supplemented with 5% FCS. Red blood cells were lysed by ammonium chloride-mediated red cell lysis (RCL) buffer and passed through a nylon mesh, and then cells were counted. For intracellular phospho-protein staining, SET-2 or spleen cells were fixed and then permeabilized using BD Phospho-flow fixation buffer and Perm-Buffer III (BD biosciences) according to the manufacturer’s protocol. Intracellular phospho-protein staining was performed using fluorochrome-conjugated antibodies, pAKT (pS473)-Alexa Fluor 647 (MB89-61) or pERK1/2 (pT202/pY204)-Alexa Fluor 647 (20 A). All phospho-flow antibodies were purchased from BD Biosciences. […] Flow cytometry was performed on a FACS Fortessa (Becton, Dickinson and Co.) using FACSDiVa software, and data analyzed using FlowJo software (Tree Star). […]

[2] = biological target: Target kinase isoforms (PI3K, mTOR, RAF, MEK) (Homo sapiens, UniProt P04049); assay: Target kinase isoforms 10-point IC50 determination (Supplementary Fig. 7); assay type: biochemical; settings: CRAF
Target kinase isoforms (PI3K, mTOR, RAF, MEK) (Homo sapiens, UniProt P04049), sequence (P04049 whole entry, canonical isoform): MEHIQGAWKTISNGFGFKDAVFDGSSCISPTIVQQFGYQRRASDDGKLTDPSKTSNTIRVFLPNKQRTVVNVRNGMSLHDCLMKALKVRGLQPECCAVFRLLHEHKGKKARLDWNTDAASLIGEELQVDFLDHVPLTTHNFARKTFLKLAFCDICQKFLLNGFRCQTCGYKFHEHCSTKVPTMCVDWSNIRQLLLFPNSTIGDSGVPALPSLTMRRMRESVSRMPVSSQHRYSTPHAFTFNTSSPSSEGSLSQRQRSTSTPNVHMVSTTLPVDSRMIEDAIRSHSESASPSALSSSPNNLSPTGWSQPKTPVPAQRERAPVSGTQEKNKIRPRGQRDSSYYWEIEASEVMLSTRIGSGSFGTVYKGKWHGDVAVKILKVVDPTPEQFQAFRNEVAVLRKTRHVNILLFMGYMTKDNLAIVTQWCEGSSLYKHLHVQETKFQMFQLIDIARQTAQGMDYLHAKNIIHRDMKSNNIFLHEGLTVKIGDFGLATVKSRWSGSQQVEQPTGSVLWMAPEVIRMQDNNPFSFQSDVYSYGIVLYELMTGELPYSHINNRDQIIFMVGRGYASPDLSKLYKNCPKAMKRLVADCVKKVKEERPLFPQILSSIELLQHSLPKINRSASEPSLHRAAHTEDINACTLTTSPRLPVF
Outline: (§1)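 Kinase activity across a 10-point dose series was corrected and normalized to vehicle-treated controls. IC50 values were derived by non-linear regression of percent activity. Kinome-wide percent inhibition was averaged over replicates.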

[3] = biological target: Target kinase isoforms (PI3K, mTOR, RAF, MEK) (Homo sapiens, UniProt P36507); assay: as above; assay type: biochemical; settings: MEK2, replicates
Target kinase isoforms (PI3K, mTOR, RAF, MEK) (Homo sapiens, UniProt P36507), sequence (P36507 whole entry, canonical isoform): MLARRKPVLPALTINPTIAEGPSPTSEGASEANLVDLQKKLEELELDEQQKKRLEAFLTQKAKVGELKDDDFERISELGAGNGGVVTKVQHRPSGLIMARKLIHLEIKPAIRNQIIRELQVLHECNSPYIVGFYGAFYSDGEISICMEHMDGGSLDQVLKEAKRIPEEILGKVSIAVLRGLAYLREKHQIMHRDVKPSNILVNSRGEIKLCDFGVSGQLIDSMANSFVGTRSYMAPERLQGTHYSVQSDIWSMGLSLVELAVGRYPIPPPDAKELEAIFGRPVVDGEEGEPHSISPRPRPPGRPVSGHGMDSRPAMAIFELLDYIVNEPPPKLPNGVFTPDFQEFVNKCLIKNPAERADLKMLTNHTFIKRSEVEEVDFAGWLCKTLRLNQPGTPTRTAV
Outline: as §1

[4] = biological target: Target kinase isoforms (PI3K, mTOR, RAF, MEK) (Homo sapiens, UniProt P15056); assay: as above; assay type: biochemical; settings: BRAF
Target kinase isoforms (PI3K, mTOR, RAF, MEK) (Homo sapiens, UniProt P15056), sequence (P15056 whole entry, canonical isoform): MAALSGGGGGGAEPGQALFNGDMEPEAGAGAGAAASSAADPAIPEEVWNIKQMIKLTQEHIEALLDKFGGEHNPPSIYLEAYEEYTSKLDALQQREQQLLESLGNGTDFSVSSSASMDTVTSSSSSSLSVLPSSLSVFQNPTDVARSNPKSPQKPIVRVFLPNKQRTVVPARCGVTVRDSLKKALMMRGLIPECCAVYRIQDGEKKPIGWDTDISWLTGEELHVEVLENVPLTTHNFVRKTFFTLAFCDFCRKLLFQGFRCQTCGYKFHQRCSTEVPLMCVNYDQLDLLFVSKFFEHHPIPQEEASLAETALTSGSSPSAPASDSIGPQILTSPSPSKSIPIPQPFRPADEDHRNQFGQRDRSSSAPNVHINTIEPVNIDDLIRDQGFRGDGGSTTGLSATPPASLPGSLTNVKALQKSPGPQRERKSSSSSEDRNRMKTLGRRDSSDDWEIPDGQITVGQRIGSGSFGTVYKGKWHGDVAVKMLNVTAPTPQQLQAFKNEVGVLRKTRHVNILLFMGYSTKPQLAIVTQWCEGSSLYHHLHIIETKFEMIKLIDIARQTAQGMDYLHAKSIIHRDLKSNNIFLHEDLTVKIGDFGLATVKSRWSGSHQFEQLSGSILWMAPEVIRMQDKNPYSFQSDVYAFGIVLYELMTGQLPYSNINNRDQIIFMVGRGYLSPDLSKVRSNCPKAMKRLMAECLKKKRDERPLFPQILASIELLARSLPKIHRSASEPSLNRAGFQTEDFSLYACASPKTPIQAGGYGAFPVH
Outline: as §1

BRAF = BRAF (Homo sapiens, UniProt P15056); assay: Target kinase 10-point inhibition assay, BRAF; assay type: biochemical; settings: replicates
BRAF, sequence (P15056 whole entry): as the sequence (P15056 whole entry, canonical isoform) above
Description: The average percent kinase inhibition from replicate data was ranked low to high, converted to a compatible identifier format, then input into Coral Human Kinome Visualization software for presentation analysis. […] Scaling of evolutionary distance for PI kinases is only relative and is based on literature analysis[62],[63]. Average percent kinome inhibition values from replicate data are supplied in Source Data file. […] Corrected data was normalized to vehicle treated control values, and dose response percent kinase activity was analyzed by non-linear regression for determination of IC50 values.

[5] = concentration 0.495 nM, 0.000495 µM
[6] = concentration 1.52 nM, 0.00152 µM
[7] = concentration 4.57 nM, 0.00457 µM
[8] = concentration 41.2 nM, 0.0412 µM

SMILES: O=C(NOCCOCCOCCOCCC(=O)N1CCN(c2cnc3ccc(-c4cnc(Cl)c(NS(=O)(=O)c5ccc(F)cc5)c4)cc3n2)CC1)c1ccc(F)c(F)c1Nc1ccc(I)cc1F [LP-182, N-(2-(2-(2-(3-(4-(7-(6-chloro-5-((4-fluorophenyl)sulfonamido)pyridin-3-yl)quinoxalin-2-yl)piperazin-1-yl)-3-oxopropoxy)ethoxy)ethoxy)ethoxy)-3,4-difluoro-2-((2-fluoro-4-iodophenyl)amino)benzamide]
- decrease of downstream activation of ERK1/2 [1]: ~ 50%
- activity at 0.000495 µM ([2]; concentration 0.495 nM, replicates): 97%
- Kinase Activity (%) ([2]; concentration 0.495 nM, replicates, 0.000495 µM): 102% and 93% and 92% and 98%
- activity at 0.00152 µM ([2]; concentration 1.52 nM, replicates): 100%
- Kinase Activity (%) ([2]; concentration 1.52 nM, replicates, 0.00152 µM): 93% and 94%
- activity at 0.00457 µM ([2]; concentration 4.57 nM, replicates): 96%
- Kinase Activity (%) ([2]; concentration 4.57 nM, replicates, 0.00457 µM): 94% (2×) and 89% and 91% and 93%
- Kinase Activity (%) ([2]; concentration 41.2 nM, replicates, 0.0412 µM): 56% and 79% and 66% and 72% and 70% and 71%
- activity at 0.123 µM ([2]; concentration 123 nM, replicates): 31%
- Kinase Activity (%) ([2]; concentration 123 nM, replicates, 0.123 µM): 30% and 34% (3×) and 32%
- activity at […] ([2]; concentration 370 nM, replicates): 7%
- Kinase Activity (%) ([2]; concentration 1110 nM, replicates, 1.11 µM): 1% (2×) and 3% and 0% and 2% (2×)
- Kinase Activity (%) CRAF ([2]; concentration 3330 nM, 3.33 µM): 0% and -2% and -1%
- Kinase Activity (%) CRAF ([2]; concentration 10000 nM, 10 µM): 3% and 0% and 1% and -1%
- activity at 0.000495 µM ([3]; concentration 0.495 nM): 90%
- Kinase Activity (%) [3, 5]: 96% (2×) and 93% and 95%
- activity at 0.00152 µM ([3]; concentration 1.52 nM): 89%
- Kinase Activity (%) [3, 6]: 91% and 95% and 92% and 94%
- activity at 0.00457 µM ([3]; concentration 4.57 nM): 87%
- Kinase Activity (%) [3, 7]: 96% and 91% and 88%
- activity at 0.0412 µM ([3]; concentration 41.2 nM): 68%
- Kinase Activity (%) [3, 8]: 64% and 78% (2×) and 82% and 72%
- Kinase Activity (%) ([3]; concentration 123 nM, 0.123 µM): 45% and 36% and 54% and 60% and 51% and 56%
- activity at 1.11 µM ([3]; concentration 1110 nM): 6%
- Kinase Activity (%) ([3]; concentration 1110 nM, 1.11 µM): 8% and 12% (2×) and 10%
- Kinase Activity (%) ([3]; concentration 3330 nM, 3.33 µM): 1% (3×) and 2% (2×) and 0%
- Kinase Activity (%) ([3]; concentration 10000 nM, 10 µM): 2% (2×) and 0% (2×) and -1% and 1%
- activity at 0.000495 µM ([4]; concentration 0.495 nM): 100%
- Kinase Activity (%) BRAF [4, 5]: 102% and 96% and 94% and 93%
- activity at 0.00152 µM ([4]; concentration 1.52 nM): 101%
- Kinase Activity (%) BRAF [4, 6]: 98% and 95% and 94%
- activity at 0.00457 µM ([4]; concentration 4.57 nM): 90%
- Kinase Activity (%) BRAF [4, 7]: 94% and 95% and 98% and 89% and 93%
- Kinase Activity (%) BRAF [4, 8]: 49% and 38% and 54% and 59% and 53%
- Kinase Activity (%) BRAF ([4]; concentration 1110 nM, 1.11 µM): -5% and -3% and 2% and 4% and 5%
- Kinase Activity (%) BRAF ([4]; concentration 3330 nM, 3.33 µM): -5% and 1% and 4%
- activity at 0.000495 µM (BRAF; 0.495 nM): 100%
- Kinase Activity (%) (BRAF; 0.495 nM, 0.000495 µM): 102% and 96% and 94% and 93%
- activity at 0.00152 µM (BRAF; 1.52 nM): 101%
- Kinase Activity (%) (BRAF; 1.52 nM, 0.00152 µM): 98% and 95% (2×) and 94%
- activity at 0.00457 µM (BRAF; 4.57 nM): 90%
- Kinase Activity (%) (BRAF; 4.57 nM, 0.00457 µM): 94% and 95% and 98% and 89% and 93%
- Kinase Activity (%) (BRAF; 41.2 nM, 0.0412 µM): 49% and 38% and 54% and 59% and 53% (2×)
- Kinase Activity (%) (BRAF; 123 nM, 0.123 µM): 14% and 12% and 41% and 34% (2×) and 38%
- Kinase Activity (%) (BRAF; 1110 nM, 1.11 µM): -5% and -3% and 2% (2×) and 4% and 5%
- Kinase Activity (%) (BRAF; 3330 nM, 3.33 µM): -5% (2×) and 1% (3×) and 4%
- Kinase Activity (%) (BRAF; 10000 nM, 10 µM): -2% and -5% and 2% and 1% and 7% and -1%
